pKi: −log10 of the molar value. “Also recorded” adds a separate entry of the source.

What is called pKi is the negative decadic logarithm of the Ki, by convention in mol/L.

The target in one experiment is FKBP12 (Homo sapiens, UniProt P62942). In words: Ki test procedure: inhibition of peptidyl-prolyl isomerase (rotamase) activity, chymotrypsin-coupled assay. The format is biochemical. To be noted: apparent Ki, FKBP rotamase inhibition. An excerpt: The inhibition of the prolyl peptidyl cis-trans isomerase activity of FKBP may be measured as an indicator of this affinity.
FKBP12, sequence (P62942 whole entry, species assumed): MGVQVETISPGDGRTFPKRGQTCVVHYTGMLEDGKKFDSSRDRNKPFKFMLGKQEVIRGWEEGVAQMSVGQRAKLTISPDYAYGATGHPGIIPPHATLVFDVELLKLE
Inhibition of the peptidyl-prolyl isomerase (rotamase) activity of the compounds used in the inventive methods and pharmaceutical compositions can be evaluated by known methods described in the literature (Harding et al., Nature, 1989, 341:758-760; Holt et al. J. Am. Chem. Soc., 115:9923-9938). These values are obtained as apparent Ki's and are presented for representative compounds in TABLE I.
The cis-trans isomerization of an alanine-proline bond in a model substrate, N-succinyl-Ala-Ala-Pro-Phe-p-nitroanilide, is monitored spectrophotometrically in a chymotrypsin-coupled assay, which releases para-nitroanilide from the trans form of the substrate. The inhibition of this reaction caused by the addition of different concentrations of inhibitor is determined, and the data is analyzed as a change in first-order rate constant as a function of inhibitor concentration to yield the apparent Ki values.
In a plastic cuvette are added 950 Ml of ice cold assay buffer (25 mM HEPES, pH 7.8, 100 mM NaCl), […] of FKBP (2.5 mM in 10 mM Tris-Cl pH 7.5, 100 mM NaCl, 1 mM dithiothreitol), […] of chymotrypsin (50 mg/ml in 1 mM HCl) and […] of test compound at various concentrations in dimethyl sulfoxide. The reaction is initiated by the addition of 5 mL of substrate (succinyl-Ala-Phe-Pro-Phe-para-nitroanilide, 5 mg/mL in 2.35 mM LiCl in trifluoroethanol).
The absorbance at 390 nm versus time is monitored for 90 seconds using a spectrophotometer and the rate constants are determined from the absorbance versus time data files.
Turning to `O=C(SCCc1ccccc1)C1CCCN1S(=O)(=O)Cc1ccccc1` (stereo not shown) [Compound 2], the pKi is 6.70 to 7.29.

`O=C(SCCCCc1ccccc1)C1CCCCN1S(=O)(=O)c1ccccc1` (stereo not shown) [Compound 10]: the pKi was 7.30 to 9.00.

Consider `Cc1ccc(S(=O)(=O)N2CCCC2C(=O)SCCc2ccccc2)cc1` (stereo not shown) [Compound 3], for which the pKi was 6.70 to 7.29.

For `COc1ccc(CCCSC(=O)C2CCCN2S(=O)(=O)c2ccccc2)cc1` [Compound 4, 3-(para-Methoxyphenyl)-1-propylmercaptyl(2S)-N-(benzenesulfonyl)pyrrolidine-2-carboxylate], the pKi is 6.70 to 7.29.

`O=C(SCCCCc1ccccc1)C1CCCCN1S(=O)(=O)C1CCCCC1` (stereo not shown) [Compound 14]: the pKi was 7.30 to 9.00.

For `O=C(SC(CCCc1ccccc1)CCCc1ccccc1)C1CCCCN1S(=O)(=O)c1ccccc1` (stereo not shown) [Compound 15], the pKi is 7.30 to 9.00.

As to `O=C(SCCC(c1ccccc1)c1ccccc1)C1CCCN1S(=O)(=O)Cc1ccccc1` (stereo not shown) [Compound 8], the pKi is 7.30 to 9.00.

On to `Cc1ccc(S(=O)(=O)N2CCCC2C(=O)SCCC(c2ccccc2)c2ccccc2)cc1` (stereo not shown) [Compound 9], for which the pKi is 7.30 to 9.00.

In the case of `COc1ccc(CCCSC(=O)C2CCCN2S(=O)(=O)Cc2ccccc2)cc1` [Compound 5, 3-(para-Methoxyphenyl)-1-propylmercaptyl (2S)-N-(α-toluenesulfonyl)pyrrolidine-2-carboxylate], the pKi was 6.70 to 7.29.

For `Cc1ccc(S(=O)(=O)N2CCCCC2C(=O)SCCCCc2ccccc2)cc1` (stereo not shown) [Compound 12], the pKi is 7.30 to 9.00.

As for `O=C(SCCc1ccccc1)C1CCCN1S(=O)(=O)c1ccccc1` (stereo not shown) [Compound 1], the pKi was 7.30 to 9.00.

Take `O=C(SCCC(c1ccccc1)c1ccccc1)C1CCCN1S(=O)(=O)c1ccccc1` (stereo not shown) [Compound 7]: the pKi is 6.70 to 7.29.

For `COc1ccc(CCCSC(=O)C2CCCN2S(=O)(=O)c2ccc(C)cc2)cc1` (stereo not shown) [Compound 6], the pKi is 6.30 to 6.70.

Regarding `COc1cc(S(=O)(=O)N2CCCCC2C(=O)SCCCCc2ccccc2)cc(OC)c1OC` (stereo not shown) [Compound 13], the pKi was 7.30 to 9.00.

On to `O=C(SCCCCc1ccccc1)C1CCCCN1S(=O)(=O)Cc1ccccc1` (stereo not shown) [Compound 11], for which the pKi was 6.70 to 7.29.

In the case of `O=C(SC(CCCc1ccccc1)CCCc1ccccc1)C1CCCCN1S(=O)(=O)Cc1ccccc1` (stereo not shown) [Compound 16], the negative logarithm of the Ki (pKi) is 6.70 to 7.29.

The test system of another experiment is C57 black 6 mice. In words: In vivo hair generation test, Experiment A (shaved C57 black 6 mice, topical). To be noted: 30 μM topical in 20% propylene glycol, 3 applications over 5 days, after six weeks. An excerpt: Care was taken not to nick or cause abrasion to the underlaying dermal layers. The animals were in anagen growth phase, as indicated by the pinkish color of the skin. […] Hair growth was quantitated by the percent of shaved area covered by new hair growth during this time period.
Regarding `CCC(C)(C)C(=O)C(=O)N1CCC[C@H]1C(=O)OCCCc1cccnc1` [GPI 1046, 3-(3-pyridyl)-1-propyl (2s)-1-(3,3-dimethyl-1,2-dioxopentyl)-2-pyrrolidinecarboxylate], the “hair regrowth in shaved area” value is “essentially complete hair regrowth; also recorded: essentially, complete hair regrowth”.

A further experiment concerns C57 black 6 mice. In words: In vivo hair generation test, Experiment B (shaved C57 Black 6 mice, topical, relative hair growth index). To be noted: one micromole per milliliter topical, three times per week, 14 days after initiation of treatment. As for the experimental part: Care was taken not to nick or cause abrasion to the underlying dermal layers. The animals were in anagen growth phase when shaved. […] The animals were treated three times per week, and hair growth was evaluated 14 days after initiation of treatment.
As to `O=C(SCCCc1ccccc1)[C@@H]1CCCN1S(=O)(=O)Cc1ccccc1` [GPI 1312], the “hair growth (relative hair growth index, FIG. 5)” value is given as “dramatic hair growth”.

Tested on in another experiment: not given
Test: not given
To be noted: topical, but not oral, application; cited from earlier work.
For `C=CC[C@@H]1/C=C(\C)C[C@H](C)C[C@H](OC)[C@H]2O[C@@](O)(C(=O)C(=O)N3CCCC[C@H]3C(=O)O[C@H](/C(C)=C/[C@@H]3CC[C@@H](O)[C@H](OC)C3)[C@H](C)[C@@H](O)CC1=O)[C@H](C)C[C@@H]2OC` [FK506], the “stimulation of hair growth” value is “stimulates hair growth in a dose-dependent manner”.

The record behind these values is US20020010205A1, “N-linked sulfone of heterocyclic thioester hair growth compositions and uses” (GPI NIL HOLDINGS, INC., priority 1998, published 2002).
